Test systems include HCT-116 colon; 786-0 renal; BT-549 breast; SN12C renal; UO-31 renal; SK-MEL-5 melanoma; OVCAR-5 ovarian; SF-295 CNS; SNB-75 CNS; SNB-19 CNS; UACC-62 melanoma; NCI-H23 lung; ACHN renal; SK-OV-3 ovarian; MALME-3M melanoma; KM12 colon; MDA-N; RXF 393 renal; HOP-62 NSCLC; M14 melanoma.
Holding throughout (test): DTP human tumour cell line panel, 48 h

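Test compounds were applied to cells in 96-well plates for 48 hours at 5 doses. TGI denotes the concentration required for complete inhibition of growth.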

For the compound `CN(C)CCNc1ccc([N+](=O)[O-])c2sc3ccccc3c(=O)c12`, the TGI (commonly the concentration giving total growth inhibition) was 11.3 µM with HCT-116 colon; 20.8 µM in the assay with 786-0 renal; 17.2 µM in the assay with BT-549 breast; > 100 µM with SN12C renal; 30.8 µM with UO-31 renal; 20.6 µM in the assay with SK-MEL-5 melanoma. Moreover, the TGI in the assay with OVCAR-5 ovarian was 14.6 µM; in the assay on SF-295 CNS, > 100 µM; in the assay with SNB-75 CNS, 35.6 µM; in the assay with SNB-19 CNS it was 43.2 µM; in the assay on UACC-62 melanoma, 16.8 µM; in the assay with NCI-H23 lung, 29.5 µM. The TGI in the assay with ACHN renal is 13.2 µM; in the assay with SK-OV-3 ovarian, > 100 µM; with MALME-3M melanoma, 17.9 µM; in the assay on KM12 colon, > 100 µM; in the assay with MDA-N, 21.6 µM; in the assay on RXF 393 renal it was 38.1 µM. Further, the TGI in the assay with HOP-62 NSCLC was determined as 8.36 µM; with M14 melanoma it was 46.8 µM.
Turning to `C1=CC2(C=CC13O[C@H](C1CCCCC1)[C@@H](C1CCCCC1)O3)O[C@H](C1CCCCC1)[C@@H](C1CCCCC1)O2`, the concentration for total growth inhibition (TGI) in the assay with HCT-116 colon, with 786-0 renal, in the assay with BT-549 breast, in the assay with SN12C renal, in the assay on UO-31 renal and in the assay on SK-MEL-5 melanoma was > 50 µM each time. Besides, the TGI with OVCAR-5 ovarian, in the assay with SF-295 CNS, in the assay on SNB-75 CNS, in the assay with SNB-19 CNS, in the assay with UACC-62 melanoma and with NCI-H23 lung was > 50 µM throughout. The TGI in the assay on ACHN renal, in the assay on SK-OV-3 ovarian, in the assay with MALME-3M melanoma, with KM12 colon, in the assay with MDA-N and in the assay with RXF 393 renal was > 50 µM each time. In addition, the TGI in the assay on HOP-62 NSCLC and with M14 melanoma was > 50 µM each time.
As to `CN1CCc2cc3c(c4c2C1C(O)c1ccccc1-4)OCO3` (stereo not given), the TGI in the assay on HCT-116 colon was > 100 µM; in the assay on 786-0 renal, 62.2 µM; with BT-549 breast, 19.4 µM; with SN12C renal, 11.1 µM; in the assay on UO-31 renal, 34 µM; with SK-MEL-5 melanoma, 26.4 µM. Moreover, the TGI was 44.4 µM with OVCAR-5 ovarian; 21.1 µM in the assay with SF-295 CNS; 28.5 µM with SNB-75 CNS; > 100 µM in the assay with SNB-19 CNS; 25.9 µM in the assay on UACC-62 melanoma; 48.2 µM in the assay on NCI-H23 lung. The TGI in the assay with ACHN renal was > 100 µM; in the assay on SK-OV-3 ovarian it was > 100 µM; in the assay on MALME-3M melanoma, 23.2 µM; in the assay with KM12 colon, 24 µM; in the assay on MDA-N, 16.1 µM; with RXF 393 renal it was 10.8 µM. The figures for the TGI in the assay with HOP-62 NSCLC and in the assay on M14 melanoma were 18.6 µM and 19.5 µM, respectively.
For `NC(=O)C(=CNC(N)=S)C(N)=O`, the TGI with HCT-116 colon, in the assay with 786-0 renal, in the assay on BT-549 breast, with SN12C renal, in the assay on UO-31 renal and in the assay with SK-MEL-5 melanoma was > 100 µM each time. For the same compound, the TGI in the assay with OVCAR-5 ovarian, in the assay with SF-295 CNS, in the assay on SNB-75 CNS, in the assay with SNB-19 CNS, with UACC-62 melanoma and with NCI-H23 lung was > 100 µM in each case. Also, the TGI in the assay with ACHN renal, in the assay with SK-OV-3 ovarian, in the assay on MALME-3M melanoma, in the assay with KM12 colon, in the assay on MDA-N and in the assay on RXF 393 renal was > 100 µM throughout. Further, the TGI with HOP-62 NSCLC and in the assay with M14 melanoma was > 100 µM in each case.
In the case of `CC(C)(C)c1cc(C(=O)/C=C/c2c(Cl)cccc2Cl)cc(C(C)(C)C)c1O`, the TGI in the assay on HCT-116 colon was 23.2 µM; in the assay on 786-0 renal, 29.7 µM; in the assay with BT-549 breast it was 61.7 µM; in the assay with SN12C renal, > 75.2 µM; with UO-31 renal it was 28.1 µM; with SK-MEL-5 melanoma, 23.9 µM. Besides, the TGI came out at 35 µM in the assay on OVCAR-5 ovarian; 42.2 µM with SF-295 CNS; 34.3 µM in the assay with SNB-75 CNS; 29.7 µM with SNB-19 CNS; 30.3 µM with UACC-62 melanoma; 48.9 µM with NCI-H23 lung. In addition, the TGI was 28.2 µM with ACHN renal; > 100 µM with SK-OV-3 ovarian; 37.6 µM with MALME-3M melanoma; 36.8 µM in the assay with KM12 colon; > 68.3 µM with MDA-N; 14.9 µM in the assay with RXF 393 renal. In addition, the figures for the TGI with HOP-62 NSCLC and with M14 melanoma were > 54.8 µM and 54.7 µM, respectively.
As to `COc1ccc(N2CN3OC(=O)N(c4ccc(OC)cc4)[C@@]3(c3ccccc3)C2)cc1`, the TGI in the assay on HCT-116 colon is > 100 µM; in the assay with 786-0 renal, > 100 µM; in the assay on BT-549 breast it was > 100 µM; in the assay with SN12C renal, > 100 µM; with UO-31 renal, > 100 µM; with SK-MEL-5 melanoma, 76.9 µM. The TGI is > 100 µM with OVCAR-5 ovarian; 92.9 µM with SF-295 CNS; 95.2 µM in the assay on SNB-75 CNS; > 100 µM with SNB-19 CNS; > 100 µM with UACC-62 melanoma; > 100 µM with NCI-H23 lung. Besides, the total growth inhibition concentration (TGI) was > 100 µM with ACHN renal; > 100 µM in the assay on SK-OV-3 ovarian; > 100 µM in the assay with MALME-3M melanoma; > 100 µM in the assay on KM12 colon; 22.6 µM in the assay on MDA-N; 74.6 µM in the assay with RXF 393 renal. Also, the TGI in the assay on HOP-62 NSCLC and with M14 melanoma was > 100 µM each time.
`C=C1C[C@@H]2CC[C@@]34CC5O[C@H]6C(O[C@H]7CC[C@H](CC(=O)O[C@@H]8[C@@H](C)[C@@H]9O[C@@H]%10C[C@]%11(C[C@@H]%12O[C@]%13(C[C@H](C)[C@@H]%14O[C@@H]%15CC(C(O)CO)O[C@@H]%15C[C@@H]%14O%13)C[C@H](C)[C@@H]%12O%11)O[C@@H]%10C[C@@H]9O[C@H]8CC8O[C@@H](CC[C@@H]1O2)C[C@@H](C)C8(O)CO)O[C@@H]7[C@@H]6O3)[C@H]5O4` (stereo not given in full): the total growth inhibition concentration (TGI) with HCT-116 colon is > 1 µM; in the assay on 786-0 renal, > 1 µM; with BT-549 breast it was 0.469 µM; with SN12C renal, > 1 µM; in the assay on UO-31 renal, > 1 µM; with SK-MEL-5 melanoma, > 1 µM. Besides, the TGI in the assay on OVCAR-5 ovarian, with SF-295 CNS, in the assay with SNB-75 CNS, in the assay on SNB-19 CNS, in the assay on UACC-62 melanoma and in the assay with NCI-H23 lung was > 1 µM in each case. Further, the TGI in the assay on ACHN renal, in the assay on SK-OV-3 ovarian, in the assay on MALME-3M melanoma, in the assay on KM12 colon, in the assay on MDA-N and with RXF 393 renal was > 1 µM each time. For the same compound, the TGI in the assay on HOP-62 NSCLC and with M14 melanoma was > 1 µM throughout.

For the origin of these results see PubChem BioAssay (NCI).
